We go through one compound from patent publication US9809563B2 (GIFU University, priority 2014, dated 2017).

Each structure is given as a SMILES string. Where a name gives a salt, the structure may show the parent alone.

This experiment has as its target abnormal prion protein (Mus musculus, UniProt P04925). In words: cell-based.

Chain of abnormal prion protein (P04925 23-230 limits assumed): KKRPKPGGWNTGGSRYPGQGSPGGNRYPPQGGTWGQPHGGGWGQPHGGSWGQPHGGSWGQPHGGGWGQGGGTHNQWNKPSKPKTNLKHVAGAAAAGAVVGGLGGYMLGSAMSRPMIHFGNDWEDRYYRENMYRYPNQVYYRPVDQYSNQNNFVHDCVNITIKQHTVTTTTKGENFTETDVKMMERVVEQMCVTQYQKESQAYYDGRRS

As for `O=C(CN1CCCC1)Nc1ccc(C(c2ccc(NC(=O)CN3CCCC3)cc2)C2CCCCC2)cc1` [maleic acid salt, N,N′-[(cyclohexylmethylene)di-4,1-phenylene]bis[2-(1-pyrrolidinyl)acetamide] maleate], the concentration for half-maximal inhibition (IC50) is 460 ± 200 nM.
